Experimental data published in the supplement of paper PMC11208160.

Experiment: recombinant barcode read abundance after kanamycin selection (control-corrected) (log10(CPM+1)); higher = more efficient recombination; sequences stand for … in AGTGCAGAGAAAATCGGCCAGTTTTCTCTGCCTGCAGTCCGCATGCCGT…AGATTTATGCAGCGGACTGCCTTTCTCCCAAAGTGATAAACCGGACAGTATCATGGACCGGTTTTCCCGGTAATCCGTATTTGCAAGGTTGGTTTCACT; site = the 11-nt target
Method in brief: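 This pooled E. coli screen matched targets with IS621 bridge RNA target-binding loops. Plating was done in duplicate on chloramphenicol/ampicillin LB agar as a control and on chloramphenicol/ampicillin/kanamycin plus 0.1 mM IPTG. Recombination efficiency reflects barcode counts at recombinant junctions as counts per million, averaged and control-corrected. The figures are log10(CPM+1).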
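Note: IS621 recombinase and bridge RNA in Escherichia coli cells.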

Row | Sequence | recombinant barcode read abundance (log10)
1 | GCGGATCCTTGGGTTCTAACCTGTTGCCT (site GCGGATCCTAG) | 2.11
2 | GCGGATCCTTGGGTTCTAACCTGTTGCCT (site GCGTATCCTAG) | 1.05
3 | GCGGCGACTTGGGTTCTAACCTGTTGCCT (site GCAGCGACTAG) | 0.291
4 | GCGGCGACTTGGGTTCTAACCTGTTGCCT (site GCCGCGACTAG) | 0.162
5 | GCGGCGACTTGGGTTCTAACCTGTTGCCT (site GCGGCGACTAG) | 0.891
6 | GCGGCGACTTGGGTTCTAACCTGTTGCCT (site GCTGCGACTAG) | 0.0436
7 | GCGGGATCTTGGGTTCTAACCTGTTGCCT (site ACGGGATCTAG) | 0.765
8 | GCGGGATCTTGGGTTCTAACCTGTTGCCT (site CCGGGATCTAG) | 0.258
9 | GCGGGATCTTGGGTTCTAACCTGTTGCCT (site GCGGGATCTAG) | 1.06
10 | GCGGGATCTTGGGTTCTAACCTGTTGCCT (site TCGGGATCTAG) | 0.174
11 | GCGGGGTCTTGGGTTCTAACCTGTTGCTT (site GCAGGGTCTAA) | 2.65
12 | GCGGGGTCTTGGGTTCTAACCTGTTGCTT (site GCCGGGTCTAA) | 0.124
13 | GCGGGGTCTTGGGTTCTAACCTGTTGCTT (site GCGGGGTCTAA) | 2.2
14 | GCGGGGTCTTGGGTTCTAACCTGTTGCTT (site GCTGGGTCTAA) | 0.783
15 | GCGGGTCCTTGGGTTCTAACCTGTTGCCT (site GCAGGTCCTAG) | 2.24
16 | GCGGGTCCTTGGGTTCTAACCTGTTGCCT (site GCCGGTCCTAG) | 0.213
17 | GCGGGTCCTTGGGTTCTAACCTGTTGCCT (site GCGGGTCCTAG) | 2.15
18 | GCGGGTCCTTGGGTTCTAACCTGTTGCCT (site GCTGGTCCTAG) | 0.532
19 | GCGTCACCTTGGGTTCTAACCTGTTGCCT (site ACGTCACCTAG) | 0.0445
20 | GCGTCACCTTGGGTTCTAACCTGTTGCCT (site CCGTCACCTAG) | 0.0376
21 | GCGTCACCTTGGGTTCTAACCTGTTGCCT (site GCGTCACCTAG) | 0.394
22 | GCGTCACCTTGGGTTCTAACCTGTTGCCT (site TCGTCACCTAG) | 0.382
23 | GCGTGAGCTTGGGTTCTAACCTGTTGCCT (site GCATGAGCTAG) | 1.07
24 | GCGTGAGCTTGGGTTCTAACCTGTTGCCT (site GCCTGAGCTAG) | 0.151
25 | GCGTGAGCTTGGGTTCTAACCTGTTGCCT (site GCGTGAGCTAG) | 0.676
26 | GCGTGAGCTTGGGTTCTAACCTGTTGCCT (site GCTTGAGCTAG) | 0.0594

Row | Sequence | recombinant barcode read abundance (log10)
27 | GCGTGTCCTTGGGTTCTAACCTGTTGCCA (site CCGTGTCCTCG) | 0.0431
28 | GCGTGTCCTTGGGTTCTAACCTGTTGCCA (site GCGTGTCCTTG) | 0.335
29 | GCGTTGCCTTGGGTTCTAACCTGTTGCCT (site GAGTTGCCTAG) | 0.073
30 | GCGTTGCCTTGGGTTCTAACCTGTTGCCT (site GCGTTGCCTAG) | 0.213
31 | GCGTTGCCTTGGGTTCTAACCTGTTGCCT (site GGGTTGCCTAG) | 0.0557
32 | GCGTTGCCTTGGGTTCTAACCTGTTGCCT (site GTGTTGCCTAG) | 0.0893
33 | GCTAGTCCTTGGGTTCTAACCTGTTGCTG (site GCTAGTCCTAC) | 0.537
34 | GCTAGTCCTTGGGTTCTAACCTGTTGCTG (site GCTAGTCCTCA) | 0.83
35 | GCTCAGGCTTGGGTTCTAACCTGTTGCCT (site GCTCAGACTAG) | 0.142
36 | GCTCAGGCTTGGGTTCTAACCTGTTGCCT (site GCTCAGCCTAG) | 0.114
37 | GCTCAGGCTTGGGTTCTAACCTGTTGCCT (site GCTCAGGCTAG) | 0.216
38 | GCTCAGGCTTGGGTTCTAACCTGTTGCCT (site GCTCAGTCTAG) | 0.202
39 | GCTCGTCCTTGGGTTCTAACCTGTTGCAT (site GCTCGTCCTAT) | 1.03
40 | GCTCGTCCTTGGGTTCTAACCTGTTGCAT (site GCTGGACCTAT) | 0.0399
41 | GCTCTCCCTTGGGTTCTAACCTGTTGCCT (site GCACTCCCTAG) | 0.0891
42 | GCTCTCCCTTGGGTTCTAACCTGTTGCCT (site GCCCTCCCTAG) | 0.388
43 | GCTCTCCCTTGGGTTCTAACCTGTTGCCT (site GCGCTCCCTAG) | 0.253
44 | GCTCTCCCTTGGGTTCTAACCTGTTGCCT (site GCTCTCCCTAG) | 0.305
45 | GCTGGACCTTGGGTTCTAACCTGTTGCCT (site ACTGGACCTAA) | 0.179
46 | GCTGGACCTTGGGTTCTAACCTGTTGCCT (site GCTGGACCTAG) | 2.15
47 | GCTTCACCTTGGGTTCTAACCTGTTGCCT (site GCTTCACCTAG) | 0.853
48 | GCTTCACCTTGGGTTCTAACCTGTTGCCT (site GCTTTACCTAA) | 0.103
49 | GCTTGGACTTGGGTTCTAACCTGTTGCAT (site GCTTGGACTAT) | 1.29
50 | GCTTGGACTTGGGTTCTAACCTGTTGCAT (site GTTTGGACTCT) | 0.0332
51 | GCTTTACCTTGGGTTCTAACCTGTTGCTT (site GCTTCACCTAG) | 0.132
52 | GCTTTACCTTGGGTTCTAACCTGTTGCTT (site GCTTTACCTAA) | 0.368

Row | Sequence | recombinant barcode read abundance (log10)
53 | GCTTTGACTTGGGTTCTAACCTGTTGCCT (site GCTTGGACTAG) | 0.0213
54 | GCTTTGACTTGGGTTCTAACCTGTTGCCT (site GCTTTGACTAG) | 0.788
55 | GGAAAGACTTGGGTTCTAACCTGTTGCAC (site GGAAAGACTGT) | 2.02
56 | GGAAAGACTTGGGTTCTAACCTGTTGCAC (site TACCGCCCTAC) | 0.128
57 | GGAACCTCTTGGGTTCTAACCTGTTGCTT (site GGAACCTCTAA) | 0.697
58 | GGAACCTCTTGGGTTCTAACCTGTTGCTT (site GGAACGTCTAA) | 0.0112
59 | GGAAGACCTTGGGTTCTAACCTGTTGCTA (site GGAAGACCTTA) | 0.956
60 | GGAAGACCTTGGGTTCTAACCTGTTGCTA (site GGAGGACCTAA) | 0.246
61 | GGAATCCCTTGGGTTCTAACCTGTTGCCT (site GGAATACCTAG) | 0.0974
62 | GGAATCCCTTGGGTTCTAACCTGTTGCCT (site GGAATCCCTAG) | 1.64
63 | GGAATCCCTTGGGTTCTAACCTGTTGCCT (site GGAATGCCTAG) | 0.463
64 | GGAATCCCTTGGGTTCTAACCTGTTGCCT (site GGAATTCCTAG) | 0.0836
65 | GGACAGTCTTGGGTTCTAACCTGTTGCGT (site CCGGTCCCTCT) | 0.485
66 | GGACAGTCTTGGGTTCTAACCTGTTGCGT (site GGACAGTCTAC) | 2.56
67 | GGACCTCCTTGGGTTCTAACCTGTTGCCT (site GGACCTCCTAA) | 0.336
68 | GGACCTCCTTGGGTTCTAACCTGTTGCCT (site GGACCTCCTAC) | 0.251
69 | GGACCTCCTTGGGTTCTAACCTGTTGCCT (site GGACCTCCTAG) | 1.32
70 | GGACCTCCTTGGGTTCTAACCTGTTGCCT (site GGACCTCCTAT) | 0.524
71 | GGACGACCTTGGGTTCTAACCTGTTGCCT (site GGACGACCTAG) | 2.26
72 | GGACGACCTTGGGTTCTAACCTGTTGCCT (site GGACGCCCTAG) | 0.102
73 | GGACGACCTTGGGTTCTAACCTGTTGCCT (site GGACGGCCTAG) | 0.412
74 | GGACGACCTTGGGTTCTAACCTGTTGCCT (site GGACGTCCTAG) | 0.163
75 | GGACGTGCTTGGGTTCTAACCTGTTGCCT (site CTCTCGTCTCC) | 0.0482
76 | GGACGTGCTTGGGTTCTAACCTGTTGCCT (site GGACGTGCTAG) | 1.92
77 | GGACTAACTTGGGTTCTAACCTGTTGCCT (site AGACTAACTAA) | 0.126
